Tests used:
Type in all cases: in vivo
Setaria viridis = experiment: greenhouse herbicidal test, post-emergence treatment; conditions: post-emergence method, scale from 0 to 100, test period 2 to 4 weeks
Excerpt: (§1) The seeds of the test plants were sown separately for each species. For the post-emergence treatment, the test plants were first grown to a height of 3 to 15 cm, depending on the plant habit, and only then treated with the active ingredients which had been suspended or emulsified in water. For this purpose, the test plants were either sown directly and grown in the same containers, or they were first grown separately as seedlings and transplanted into the test containers a few days prior to treatment. Depending on the species, the plants were kept at 10-25° C. or 20-35° C., respectively. The test period extended over 2 to 4 weeks. During this time, the plants were tended, and their response to the individual treatments was evaluated. Evaluation was carried out using a scale from 0 to 100. 100 means no emergence of the plants, or complete destruction of at least the aerial moieties, and 0 means no damage, or normal course of growth. A good herbicidal activity is given at values of at least 70 and a very good herbicidal activity is given at values of at least 85. The plants used in the greenhouse experiments were of the following species: [table]

Apera spica-venti = experiment: greenhouse herbicidal test, pre-emergence treatment; conditions: pre-emergence method, application rate 2000 g/ha, scale from 0 to 100, test period 2 to 4 weeks
Excerpt: (§2) The seeds of the test plants were sown separately for each species. For the pre-emergence treatment, the active ingredients, which had been suspended or emulsified in water, were applied directly after sowing by means of finely distributing nozzles. The containers were irrigated gently to promote germination and growth and subsequently covered with transparent plastic hoods until the plants had rooted. This cover caused uniform germination of the test plants, unless this had been impaired by the active ingredients. Depending on the species, the plants were kept at 10-25° C. or 20-35° C., respectively. The test period extended over 2 to 4 weeks. During this time, the plants were tended, and their response to the individual treatments was evaluated. Evaluation was carried out using a scale from 0 to 100. 100 means no emergence of the plants, or complete destruction of at least the aerial moieties, and 0 means no damage, or normal course of growth. A good herbicidal activity is given at values of at least 70 and a very good herbicidal activity is given at values of at least 85. The plants used in the greenhouse experiments were of the following species: [table]

Echinocloa crus-galli [1] = experiment: greenhouse herbicidal test, post-emergence treatment; conditions: post-emergence method, scale from 0 to 100, test period 2 to 4 weeks
Excerpt: as §1

Alopecurus myosuroides = experiment: as above; conditions: post-emergence method, application rate 2000 g/ha, scale from 0 to 100, test period 2 to 4 weeks
Excerpt: as §1

Avena fatua = experiment: as above; conditions: post-emergence method, application rate 2000 g/ha, scale from 0 to 100, test period 2 to 4 weeks
Excerpt: as §1

Echinocloa crus-galli [2] = experiment: greenhouse herbicidal test, pre-emergence treatment; conditions: pre-emergence method, scale from 0 to 100, test period 2 to 4 weeks
Excerpt: as §2

Row | Structure (SMILES) | herbicidal activity against APESV (Apera spica-venti) | herbicidal activity against ECHCG (Echinocloa crus-galli [1]; application rate 2000 g/ha) | herbicidal activity against ALOMY (Alopecurus myosuroides) | herbicidal activity against AVEFA (Avena fatua) | herbicidal activity against ECHCG (Echinocloa crus-galli [2]; application rate 2000 g/ha) | also measured
1 | Brc1ccsc1-c1cnc(C2CC2)nc1-c1ccco1 [Ex.6] |  |  |  |  |  | herbicidal activity against SETVI (Setaria viridis; application rate 1000 g/ha): very good (a very good herbicidal activity is given at values of at least 85)
2 | Brc1cccnc1-c1cnc(C2CC2)nc1-c1ccco1 [Ex.8] | very good (a very good herbicidal activity is given at values of at least 85) |  |  |  |  | 
3 | Fc1cccnc1-c1cnc(C2CC2)nc1-c1ccco1 [Ex.9] |  | good (A good herbicidal activity is given at values of at least 70) |  |  |  | 
4 | Brc1cccnc1-c1cnc(C2CC2)nc1-c1ccco1 [Ex.10] |  |  | good (A good herbicidal activity is given at values of at least 70) |  |  | 
5 | Fc1cccnc1-c1cnc(C2CC2)nc1-c1ccoc1 [Ex.11] |  |  |  |  |  | herbicidal activity against ECHCG (Echinocloa crus-galli [1]; application rate 1000 g/ha): good (A good herbicidal activity is given at values of at least 70)
6 | Cc1occc1-c1nc(C2CC2)ncc1-c1ncccc1Br [Ex.12] | very good (a very good herbicidal activity is given at values of at least 85) | good (A good herbicidal activity is given at values of at least 70) | good (A good herbicidal activity is given at values of at least 70) | good (A good herbicidal activity is given at values of at least 70) |  | 
7 | Cc1occc1-c1nc(C2CC2)ncc1-c1ncccc1F [Ex.13] |  | good (A good herbicidal activity is given at values of at least 70) |  |  |  | herbicidal activity against SETVI (Setaria viridis; application rate 2000 g/ha): good (A good herbicidal activity is given at values of at least 70)
8 | Cc1nc(C2CC2)ncc1-c1cc(Br)sc1Br [Ex.15] |  |  |  |  |  | herbicidal activity against ECHCG (Echinocloa crus-galli [2]; application rate 500 g/ha): good (A good herbicidal activity is given at values of at least 70)
9 | Cc1ccc(-c2nc(C3CC3)ncc2-c2ncccc2Br)o1 [Ex.17] | very good (a very good herbicidal activity is given at values of at least 85) |  |  | very good (a very good herbicidal activity is given at values of at least 85) | very good (a very good herbicidal activity is given at values of at least 85) | 
10 | Cc1ccoc1-c1nc(C2CC2)ncc1-c1ncccc1Br [Ex.18] |  | good (A good herbicidal activity is given at values of at least 70) |  | very good (a very good herbicidal activity is given at values of at least 85) |  | 
11 | CCOC(=O)Cc1nc(C2CC2)ncc1-c1ncccc1Cl [Ex.20] |  | very good (a very good herbicidal activity is given at values of at least 85) | very good (a very good herbicidal activity is given at values of at least 85) | very good (a very good herbicidal activity is given at values of at least 85) | very good (a very good herbicidal activity is given at values of at least 85) | 
12 | Clc1cccnc1-c1cnc(C2CC2)nc1/C=C/c1ccco1 [Ex.25] | very good (a very good herbicidal activity is given at values of at least 85) | very good (a very good herbicidal activity is given at values of at least 85) | very good (a very good herbicidal activity is given at values of at least 85) |  | very good (a very good herbicidal activity is given at values of at least 85) | herbicidal activity against SETVI (Setaria viridis; application rate 2000 g/ha): very good (a very good herbicidal activity is given at values of at least 85)
13 | OC1(Cc2nc(C3CC3)ncc2-c2ncccc2Cl)CCCC1 [Ex.26] |  |  |  |  |  | herbicidal activity against SETVI (Setaria viridis; application rate 2000 g/ha): very good (a very good herbicidal activity is given at values of at least 85)
14 | Clc1cccnc1-c1cnc(C2CC2)nc1-c1ccoc1 [Ex.27] | very good (a very good herbicidal activity is given at values of at least 85) | very good (a very good herbicidal activity is given at values of at least 85) | very good (a very good herbicidal activity is given at values of at least 85) | very good (a very good herbicidal activity is given at values of at least 85) | very good (a very good herbicidal activity is given at values of at least 85) | 
15 | Clc1cccnc1-c1cnc(C2CC2)nc1C=C1CCCC1 [Ex.28] | very good (a very good herbicidal activity is given at values of at least 85) | very good (a very good herbicidal activity is given at values of at least 85) | very good (a very good herbicidal activity is given at values of at least 85) | good (A good herbicidal activity is given at values of at least 70) | very good (a very good herbicidal activity is given at values of at least 85) | 
16 | C/C=C/c1nc(C2CC2)ncc1-c1ncccc1Cl [Ex.30] | very good (a very good herbicidal activity is given at values of at least 85) | good (A good herbicidal activity is given at values of at least 70) | very good (a very good herbicidal activity is given at values of at least 85) |  | very good (a very good herbicidal activity is given at values of at least 85) | 
17 | OC(Cc1nc(C2CC2)ncc1-c1ncccc1Cl)c1ccccc1 (stereo not drawn) [Ex.36] |  | very good (a very good herbicidal activity is given at values of at least 85) | very good (a very good herbicidal activity is given at values of at least 85) |  |  | herbicidal activity against SETVI (Setaria viridis; application rate 2000 g/ha): very good (a very good herbicidal activity is given at values of at least 85)
18 | OC(Cc1nc(C2CC2)ncc1-c1ncccc1Cl)c1ccoc1 (stereo not drawn) [Ex.38] |  | very good (a very good herbicidal activity is given at values of at least 85) |  |  | very good (a very good herbicidal activity is given at values of at least 85) | 
19 | Clc1cccnc1-c1cnc(C2CC2)nc1C=Cc1ccoc1 [Ex.39] | very good (a very good herbicidal activity is given at values of at least 85) | very good (a very good herbicidal activity is given at values of at least 85) | good (A good herbicidal activity is given at values of at least 70) |  | very good (a very good herbicidal activity is given at values of at least 85) | 
20 | Clc1cccnc1-c1cnc(C2CC2)nc1C=C1CCCCC1 [Ex.42] |  | good (A good herbicidal activity is given at values of at least 70) |  |  |  | 
21 | CCC=Cc1nc(C2CC2)ncc1-c1ncccc1Cl [Ex.45] | good (A good herbicidal activity is given at values of at least 70) |  | good (A good herbicidal activity is given at values of at least 70) |  | very good (a very good herbicidal activity is given at values of at least 85) | 
22 | Cc1nc(C)c(-c2nc(C3CC3)ncc2-c2ncccc2Cl)o1 [Ex.46] | very good (a very good herbicidal activity is given at values of at least 85) | very good (a very good herbicidal activity is given at values of at least 85) |  | very good (a very good herbicidal activity is given at values of at least 85) | very good (a very good herbicidal activity is given at values of at least 85) | herbicidal activity against SETVI (Setaria viridis; application rate 2000 g/ha): very good (a very good herbicidal activity is given at values of at least 85)
23 | OC(c1ccccc1)c1nc(C2CC2)ncc1-c1ccccn1 (stereo not drawn) [Ex. 14] |  |  |  |  |  | herbicidal activity against SETVI (Setaria viridis; application rate 2000 g/ha): very good (a very good herbicidal activity is given at values of at least 85)
